Measurements: patent publication US10053477B2, “Spirocyclic aryl phosphorus oxide and aryl phosphorus sulfide” (QILU PHARMACEUTICAL CO., LTD., priority 2014, dated 2018)

Legend:
[1] = system: LU-01-0015 xenotransplantation (PDX) from lung cancer patients; assay: In vivo efficacy, LU-01-0015 xenotransplantation (PDX) from lung cancer patients; design: species or system BALB/c nude mice; settings: for Tumor volume: 25 mg/kg orally everyday
Excerpt: BALB/c nude mice, female, 6 to 8 weeks, about 18 to 22 g bodyweight, was kept in a special environment without pathogens, and a single ventilated cage (5 mice per cage). Beddings and water in all the cages were disinfected before use. […] 80 mice were supplied by Shanghai BK Laboratory Animal Co., LTD for study. Each mouse was subcutaneously implanted tumor tissue (20-30 mm^3) at right flank for growth of tumor. When the average tumor volume reached about 250-300 mm^3, the assay started. Test compounds were delivered orally everyday, 25 mg/kg. Tumor size was measured with two-dimensional caliper every 3 days, size was recorded by mm^3, and calculated by the following formula: V=V=0.5a×b2, where a and b are respectively the long diameter and short diameter length of the tumor. The antitumor efficacy was determined by dividing the average increased tumor volume in compound-treated animal by the average increased tumor volume in untreated animal.

[2] = system: LU-01-0319 Crizotinib resistance model; assay: In vivo anti-tumor efficacy, Crizotinib resistant LU-01-0319 xenotransplantation (PDX) tumor; design: species or system BALB/c nude mice
Excerpt: LU-01-0319 xenotransplantation tumor models initially obtained from clinical sample through surgical resection were implanted into nude mice, which was defined as a batch of P0 (LU-01-0319-P0). The next batch was defined as P1 (LU-01-0319-P1) which was implanted tumors from P0. FP3 was regained from P2, the next batch was defined as FP4 which was implanted tumors from FP3. […] The continuous increasing tumors were defined as LU-01-0319 antitumor models. BALB/c nude mice, female, 6 to 8 weeks, about 18 to 22 g bodyweight, 75 mice were used for study, supplied by Shanghai BK Laboratory Animal Co., LTD. Tumour biopsies (about 30 mm^3) of LU-01-0319R FP6 were implanted subcutaneously on right side of each mouse for growth of tumor. […] Dose of Crizotinib was appropriately varied depending on the tumor size. When average tumor volume reached about ˜500 mm^3, the assay began. Once a day the compounds to be tested were orally administered. Tumor size were measured twice a week with a caliper at two dimensions, and calculated with the following formula: V=0.5a×b2, where a and b are respectively long diameter and short diameter of the tumor. The antitumor efficacy was determined by dividing the average increased tumor volume in compound-treated animal by the average increased tumor volume in untreated animal.

[3] = system: LU-01-0319 xenotransplantation (PDX) from lung cancer patients; assay: In vivo efficacy, LU-01-0319 xenotransplantation (PDX) from lung cancer patients; design: species or system BALB/c nude mice; settings: 10 mg/kg orally everyday
Excerpt: BALB/c nude mice, female, 6 to 8 weeks, about 18 to 22 g bodyweight, was kept in a special environment without pathogens, and a single ventilated cage (5 mice per cage). Beddings and water in all the cages were disinfected before use. All the animal had free access to standard authorized commercially available lab diet. 80 mice were supplied by Shanghai BK Laboratory Animal Co., LTD for study. Each mouse was subcutaneously implanted tumor tissue (20-30 mm^3) at right flank for growth of tumor. When the average tumor volume reached about 250-300 mm^3, the assay started. Test compounds were delivered orally everyday, 10 mg/kg. Tumor size was measured with two-dimensional caliper every 3 days, size was recorded by mm^3, and calculated by the following formula: V=V=0.5a×b2, where a and b are respectively the long diameter and short diameter length of the tumor. The antitumor efficacy was determined by dividing the average increased tumor volume in compound-treated animal by the average increased tumor volume in untreated animal.

[4] = biological target: T1, ALK wild-type (Homo sapiens, UniProt Q9UM73); assay: ALK wild-type enzymatic inhibition (HTRF); assay type: biochemical; settings: 30 μM ATP
T1 construct: purchased Carna Biosciences (Japan)
T1 sequence (Q9UM73 19-1620): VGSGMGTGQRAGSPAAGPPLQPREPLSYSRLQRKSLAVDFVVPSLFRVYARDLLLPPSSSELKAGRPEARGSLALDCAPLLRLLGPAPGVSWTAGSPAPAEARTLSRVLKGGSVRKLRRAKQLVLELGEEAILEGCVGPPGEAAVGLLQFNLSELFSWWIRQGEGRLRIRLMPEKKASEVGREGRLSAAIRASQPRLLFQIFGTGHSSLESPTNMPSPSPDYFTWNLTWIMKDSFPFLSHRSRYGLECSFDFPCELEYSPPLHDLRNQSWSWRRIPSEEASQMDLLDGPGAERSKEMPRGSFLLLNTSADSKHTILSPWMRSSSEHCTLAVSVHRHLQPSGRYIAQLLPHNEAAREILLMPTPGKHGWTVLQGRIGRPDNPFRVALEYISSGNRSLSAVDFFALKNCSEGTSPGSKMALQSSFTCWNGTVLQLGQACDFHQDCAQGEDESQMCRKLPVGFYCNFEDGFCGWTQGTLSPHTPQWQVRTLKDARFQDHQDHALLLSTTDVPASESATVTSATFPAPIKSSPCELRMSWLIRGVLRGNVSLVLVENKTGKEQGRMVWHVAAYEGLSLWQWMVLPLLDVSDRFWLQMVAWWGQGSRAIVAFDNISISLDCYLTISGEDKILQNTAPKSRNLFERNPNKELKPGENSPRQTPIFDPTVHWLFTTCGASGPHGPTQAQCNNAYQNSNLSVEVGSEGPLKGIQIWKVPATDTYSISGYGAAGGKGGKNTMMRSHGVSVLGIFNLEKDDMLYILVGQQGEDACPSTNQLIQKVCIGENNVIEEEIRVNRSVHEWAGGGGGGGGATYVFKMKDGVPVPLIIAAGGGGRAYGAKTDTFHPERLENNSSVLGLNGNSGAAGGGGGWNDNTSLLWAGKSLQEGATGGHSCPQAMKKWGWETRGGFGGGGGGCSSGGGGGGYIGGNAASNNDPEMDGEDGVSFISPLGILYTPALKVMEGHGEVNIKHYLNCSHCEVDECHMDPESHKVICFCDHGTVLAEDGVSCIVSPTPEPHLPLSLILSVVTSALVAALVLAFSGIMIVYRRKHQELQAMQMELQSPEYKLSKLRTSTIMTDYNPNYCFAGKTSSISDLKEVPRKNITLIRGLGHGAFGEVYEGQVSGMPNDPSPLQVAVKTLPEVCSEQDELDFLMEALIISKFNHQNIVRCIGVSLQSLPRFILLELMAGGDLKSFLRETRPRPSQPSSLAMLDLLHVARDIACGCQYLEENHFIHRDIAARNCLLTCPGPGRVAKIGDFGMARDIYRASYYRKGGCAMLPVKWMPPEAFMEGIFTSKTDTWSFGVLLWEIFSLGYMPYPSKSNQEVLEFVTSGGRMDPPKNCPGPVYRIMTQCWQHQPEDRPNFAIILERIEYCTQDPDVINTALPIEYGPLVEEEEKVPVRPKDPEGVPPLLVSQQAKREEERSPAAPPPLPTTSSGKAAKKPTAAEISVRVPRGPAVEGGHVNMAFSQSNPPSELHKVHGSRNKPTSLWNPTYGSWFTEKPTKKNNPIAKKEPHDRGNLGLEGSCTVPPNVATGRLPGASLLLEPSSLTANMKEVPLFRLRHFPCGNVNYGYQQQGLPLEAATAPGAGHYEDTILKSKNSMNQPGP
Protocol: (§1) Enzyme: ALK wild-type, ALK C1156Y and ALK L1196M supplied by Carna Biosciences (Japan), EGFR T790M/L858R supplied by Life technology (Madison, Wis.).
(§2) HTRF kit: supplied by Cis-Bio International, with Eu-marked TK1 antibody, XL665- and biotin-labelled TK1 polypeptide substrates.
10 μl wild-type ALK enzyme reaction mixture system: 0.5 nM wild-type ALK, 1 μM biotin-TK1 peptide, 30 μM ATP. Reaction buffer: 50 mM Hepes (pH7.5), 10 mM MgCl2, 0.01 mM NaV3VO4.
(§3) Incubation was carried out for 60 minutes at room temperature. Detection was by Envision.

[5] = biological target: T2, ALK L1196M (Homo sapiens, UniProt Q9UM73, L1196M); assay: ALK L1196M enzymatic inhibition (HTRF); assay type: biochemical; settings: 30 μM ATP
T2 construct: purchased Carna Biosciences (Japan)
T2 sequence (Q9UM73 19-1620 L1196M): as the sequence (Q9UM73 19-1620) above, with L1178M counted along it
Protocol: as §1, §2
Reaction buffer: 50 mM Hepes (pH7.5), 10 mM MgCl2, 0.01 mM NaV3VO4.
as §3

[6] = biological target: T3, ALK C1156Y (Homo sapiens, UniProt Q9UM73, C1156Y); assay: ALK C1156Y enzymatic inhibition (HTRF); assay type: biochemical; settings: 30 μM ATP
T3 construct: purchased Carna Biosciences (Japan)
T3 sequence (Q9UM73 19-1620 C1156Y): as the sequence (Q9UM73 19-1620) above, with C1138Y counted along it
Protocol: as §1, §2
Reaction buffer: 50 mM Hepes (pH7.5), 10 mM MgCl2, 0.01 mM NaV3VO4. […] Reaction was reacted at room temperature for 60 minutes.
as §3

[7] = biological target: T4, EGFR T790M/L858R (Homo sapiens, UniProt P00533, L858R/T790M); assay: EGFR T790M/L858R enzymatic inhibition (HTRF); assay type: biochemical; settings: 20 μM ATP
T4 construct: purchased Life technology (Madison, Wis.)
T4 sequence (P00533 25-1210 T790M/L858R): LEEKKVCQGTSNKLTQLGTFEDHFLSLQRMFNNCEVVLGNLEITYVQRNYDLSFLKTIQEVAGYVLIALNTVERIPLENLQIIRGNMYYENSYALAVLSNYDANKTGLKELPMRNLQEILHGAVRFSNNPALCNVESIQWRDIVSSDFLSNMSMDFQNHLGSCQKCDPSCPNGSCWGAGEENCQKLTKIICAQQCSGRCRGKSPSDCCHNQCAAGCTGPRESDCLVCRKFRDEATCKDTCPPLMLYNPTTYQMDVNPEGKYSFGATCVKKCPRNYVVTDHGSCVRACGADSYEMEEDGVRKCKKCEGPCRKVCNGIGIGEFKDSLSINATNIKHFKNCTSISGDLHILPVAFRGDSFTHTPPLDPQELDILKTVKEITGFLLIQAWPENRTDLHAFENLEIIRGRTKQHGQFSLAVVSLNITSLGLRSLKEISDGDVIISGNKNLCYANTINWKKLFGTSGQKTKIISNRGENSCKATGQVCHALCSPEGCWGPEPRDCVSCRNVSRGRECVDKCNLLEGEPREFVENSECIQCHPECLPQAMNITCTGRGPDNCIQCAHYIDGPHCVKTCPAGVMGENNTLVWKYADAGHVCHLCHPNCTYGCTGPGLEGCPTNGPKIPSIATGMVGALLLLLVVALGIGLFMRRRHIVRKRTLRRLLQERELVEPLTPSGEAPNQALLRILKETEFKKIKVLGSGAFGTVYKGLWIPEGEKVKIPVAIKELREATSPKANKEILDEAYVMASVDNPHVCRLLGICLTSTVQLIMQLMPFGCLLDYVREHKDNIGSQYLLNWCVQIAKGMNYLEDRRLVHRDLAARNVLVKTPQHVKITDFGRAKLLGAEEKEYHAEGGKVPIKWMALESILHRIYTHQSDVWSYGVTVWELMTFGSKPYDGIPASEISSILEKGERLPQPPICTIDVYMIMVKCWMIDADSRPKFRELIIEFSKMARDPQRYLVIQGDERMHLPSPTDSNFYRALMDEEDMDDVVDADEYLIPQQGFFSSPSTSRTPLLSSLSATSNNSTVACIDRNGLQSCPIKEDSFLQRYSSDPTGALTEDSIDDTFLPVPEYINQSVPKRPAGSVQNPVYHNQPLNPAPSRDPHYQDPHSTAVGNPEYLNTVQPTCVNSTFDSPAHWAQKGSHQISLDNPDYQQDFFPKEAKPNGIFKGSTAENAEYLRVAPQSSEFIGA
Protocol: as §1, §2
The compound to be tested is diluted at a gradient by 3 times thereby giving 11 gradients starting from […] to 0.017 nM for the final concentration.
10 μl EGFR T790M/L858R enzyme reaction mixture system: 0.08 nM EGFR T790M/L858R, 1 μM biotin-TK1 peptide, 20 μM ATP. Reaction buffer: 50 mM Hepes (pH7.5), 10 mM MgCl2, 0.01 mM NaV3VO4. The reaction plate was white Proxiplate 384-Plus plate (PerkinElmer). Reaction was reacted at room temperature for 60 minutes.
Detecting reaction: 10 μl testing reagent was added to the reaction plate, the final concentration of Antibody was 2 nM, XL665 was 62.5 nM. Incubation was carried out for 60 minutes at room temperature. Detection was by Envision.

## COc1cc(N2CCC(N3CCN(C)CC3)CC2)ccc1Nc1ncc(Cl)c(Nc2ccccc2P(C)(C)=O)n1 [AP26113, reference compound]
[1]; 3 days
  Tumor volume: 207 mm^3
[1]; 6 days
  Tumor volume: 174 mm^3
[1]; 9 days
  Tumor volume: 162 mm^3
[1]; 12 days
  Tumor volume: 142 mm^3
[1]; 16 days
  Tumor volume: 119 mm^3
[1]; 19 days
  Tumor volume: 122 mm^3
[1]; 23 days
  Tumor volume: 119 mm^3
[1]; after 16 days, 25 mg/kg
  tumor volume was reduced to (from 277 mm^3): 119 mm^3
[2]; 0 day, dosage 3 mg/Kg orally once a day
  Tumor volume: 501 mm^3
[2]; 0 day, dosage 10 mg/Kg orally once a day
  Tumor volume: 502 mm^3
[2]; 3 days, dosage 3 mg/Kg orally once a day
  Tumor volume: 656 mm^3
[2]; 3 days, dosage 10 mg/Kg orally once a day
  Tumor volume: 646 mm^3
[2]; 7 days, dosage 3 mg/Kg orally once a day
  Tumor volume: 690 mm^3
[2]; 7 days, dosage 10 mg/Kg orally once a day
  Tumor volume: 604 mm^3
[2]; 10 days, dosage 3 mg/Kg orally once a day
  Tumor volume: 898 mm^3
[2]; 10 days, dosage 10 mg/Kg orally once a day
  Tumor volume: 593 mm^3
[2]; 13 days, dosage 3 mg/Kg orally once a day
  Tumor volume: 1096 mm^3
[2]; 13 days, dosage 10 mg/Kg orally once a day
  Tumor volume: 504 mm^3
[2]; 17 days, dosage 3 mg/Kg orally once a day
  Tumor volume: 1415 mm^3
[2]; 17 days, dosage 10 mg/Kg orally once a day
  Tumor volume: 568 mm^3
[2]; 19 days, dosage 3 mg/Kg orally once a day
  Tumor volume: 1499 mm^3
[2]; 19 days, dosage 10 mg/Kg orally once a day
  Tumor volume: 508 mm^3
[3]; 0 days
  Tumor volume: 371 mm^3
[3]; 2 days
  Tumor volume: 437 mm^3
[3]; 6 days
  Tumor volume: 448 mm^3
[3]; 9 days
  Tumor volume: 485 mm^3
[3]; 13 days
  Tumor volume: 512 mm^3
[3]; 16 days
  Tumor volume: 492 mm^3
[3]; 20 days
  Tumor volume: 457 mm^3
[3]; 23 days
  Tumor volume: 391 mm^3

## COc1cc(N2CCC3(CCN(C)CC3)CC2)ncc1Nc1ncc(Cl)c(Nc2ccccc2P(C)(C)=O)n1 [Compound 24, (2-((5-Chloro-2-((4-methoxy-6-(9-methyl-3,9-diazaspiro[5.5]undecan-3-yl)pyridin-3-yl)amino)pyrimidin-4-yl)amino)phenyl)dimethyl phosphine oxide]
[4]
  IC50: 1 to 100 nM
[5]
  IC50: 1 to 100 nM
[6]
  IC50: 1 to 100 nM
[7]
  IC50: 101 to 1000 nM

## COc1cc(N2CCC3(CCC(N(C)C)CC3)CC2)ccc1Nc1ncc(Cl)c(Nc2ccccc2P(C)(C)=O)n1 [Compound 14, (2-((5-Chloro-2-((4-(9-(dimethylamino)-3-azaspiro[5.5]undecan-3-yl)-2-methoxyphenyl)amino)pyrimidin-4-yl)amino)phenyl)dimethyl phosphine oxide]
[4]
  IC50: 1 to 100 nM
[5]
  IC50: 1 to 100 nM
[6]
  IC50: 1 to 100 nM
[7]
  IC50: 1 to 100 nM

## COc1cc(N2CCC3(CCN(C)CC3)CC2)c(Br)cc1Nc1ncc(Cl)c(Nc2ccccc2P(C)(C)=O)n1 [Compound 21, (2-((2-((5-Bromo-2-methoxy-4-(9-methyl-3,9-diazaspiro[5.5]undecan-3-yl)phenyl)amino)-5-chloropyrimidin-4-yl)amino)phenyl)dimethyl phosphine oxide]
[4]
  IC50: 1 to 100 nM
[5]
  IC50: 1 to 100 nM
[6]
  IC50: 1 to 100 nM
[7]
  IC50: 1 to 100 nM

## COc1cc(C2CC3(CCN(C)CC3)C2)c(F)cc1Nc1ncc(Cl)c(Nc2ccccc2P(C)(C)=O)n1 [Compound 29, (2-((5-Chloro-2-((5-fluoro-2-methoxy-4-(7-methyl-7-azaspiro[3.5]nonan-2-yl)phenyl)amino)pyrimidin-4-yl)amino)phenyl)dimethyl phosphine oxide]
[4]
  IC50: 1 to 100 nM
[5]
  IC50: 1 to 100 nM
[6]
  IC50: 1 to 100 nM
[7]
  IC50: 1 to 100 nM

## COc1ccc(C2CC3(CC(=O)N(C)C3)C2)cc1Nc1ncc(Cl)c(Nc2ccccc2P(C)(C)=O)n1 (centres unmarked) [Compound 2, 2-(3-((5-Chloro-4-((2-(dimethylphosphoryl)phenyl)amino)pyrimidin-2-yl)amino)-4-methoxyphen-yl)-6-methyl-6-azaspiro[3.4]octan-7-one]
[4]
  IC50: 101 to 1000 nM
[5]
  IC50: 101 to 1000 nM
[6]
  IC50: 101 to 1000 nM
[7]
  IC50: 101 to 1000 nM

## COc1cc(N2CCC3(CCN(C)CC3)CC2)ccc1Nc1ncc(Cl)c(N(C)c2ccccc2P(C)(C)=O)n1 [Compound 18, (2-((5-Chloro-2-((2-methoxy-4-(9-methyl-3,9-diazaspiro[5.5]undecan-3-yl)phenyl)amino)pyrimidin-4-yl)(methyl)amino)phenyl)dimethyl phosphine oxide]
[4]
  IC50: > 1000 nM
[5]
  IC50: > 1000 nM
[6]
  IC50: > 1000 nM
[7]
  IC50: > 1000 nM

## COc1cc(N2CCC3(CC2)CC(N(C)C)C3)ccc1Nc1ncc(Cl)c(Nc2ccccc2P(C)(C)=O)n1 [Compound 13, (2-((5-Chloro-2-((4-(2-(dimethylamino)-7-azaspiro[3.5]nonan-7-yl)-2-methoxyphenyl)amino)pyrimidin-4-yl)amino)phenyl)dimethyl phosphine oxide]
[4]
  IC50: 1 to 100 nM
[5]
  IC50: 1 to 100 nM
[6]
  IC50: 1 to 100 nM
[7]
  IC50: 1 to 100 nM

## COc1cc(N2CCC3(CCN(C)CC3)CC2)ccc1Nc1ncc(Cl)c(Oc2ccccc2P(C)(C)=O)n1 [Compound 19, (2-((5-Chloro-2-((2-methoxy-4-(9-methyl-3,9-diazaspiro[5.5]undecan-3-yl)phenyl)amino)pyrimidin-4-yl)oxy)phenyl)dimethyl phosphine oxide]
[4]
  IC50: > 1000 nM
[5]
  IC50: > 1000 nM
[6]
  IC50: > 1000 nM
[7]
  IC50: > 1000 nM

## Cc1cc(Nc2ncc(Cl)c(Nc3ccccc3S(=O)(=O)C(C)C)n2)c(OC(C)C)cc1C1CCNCC1 [LDK378]
[3]; 0 days
  Tumor volume: 373 mm^3
[3]; 2 days
  Tumor volume: 397 mm^3
[3]; 6 days
  Tumor volume: 366 mm^3
[3]; 9 days
  Tumor volume: 350 mm^3
[3]; 13 days
  Tumor volume: 425 mm^3
[3]; 16 days
  Tumor volume: 369 mm^3
[3]; 20 days
  Tumor volume: 329 mm^3
[3]; 23 days
  Tumor volume: 268 mm^3

## COc1cc(N2CCC3(CCN(C)CC3)CC2)ccc1Nc1ncc(C(F)(F)F)c(Nc2ccccc2P(C)(C)=O)n1 [Compound 15, (2-((2-((2-Methoxy-4-(9-methyl-3,9-diazaspiro[5.5]undecan-3-yl)phenyl)amino)-5-(trifluoromethyl)pyrimidin-4-yl)amino)phenyl)dimethyl phosphine oxide]
[4]
  IC50: > 1000 nM
[5]
  IC50: 101 to 1000 nM
[6]
  IC50: > 1000 nM
[7]
  IC50: > 1000 nM
